Reference: publication PMC6100082, “Pyridine-Ureas as Potential Anticancer Agents: Synthesis and In Vitro Biological Evaluation” (Molecules : A Journal of Synthetic Chemistry and Natural …, 2018)
Read-outs that look alike come from different tables or passages of the source.

Assays:
[1] = system: breast cancer MCF-7 cell line; assay: In vitro anti-proliferative activity, MTT assay; assay type: cell-based, human; conditions: Homo sapiens, MCF-7, MTT
Procedure, shortened: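 Cells were grown in DMEM with 10% heat-inactivated FBS, 10 μg/mL insulin and 1% penicillin-streptomycin. Anti-proliferative activity was measured by MTT colorimetric read-out, in triplicate. Values are the mean of at least three separate experiments.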

NCI 58 cell line panel = assay: NCI one-dose SRB assay, whole panel / subpanel summary; assay type: cell-based, human
Procedure, shortened: (§1)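 At a fixed 10^−5 M, each compound is incubated with the cell line for 48 h before protein content is stained with sulforhodamine B to gauge viability and growth; results are presented as GI%.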

CCRF-CEM = assay: NCI one-dose SRB assay (Leukemia); assay type: cell-based, human
Procedure, shortened: as §1

HL-60(TB) = assay: NCI one-dose SRB assay (Leukemia); assay type: cell-based, human
Procedure, shortened: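 One-dose primary screen per NCI Drug Evaluation Branch protocol: 10^−5 M compound, 48 h, SRB viability/growth read-out, GI% reported.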

K-562 = assay: NCI one-dose SRB assay (Leukemia); assay type: cell-based, human
Procedure, shortened: as §1

MOLT-4 = assay: NCI one-dose SRB assay (Leukemia); assay type: cell-based, human
Procedure, shortened: as §1

RPMI-8226 = assay: NCI one-dose SRB assay (Leukemia); assay type: cell-based, human
Procedure, shortened: as §1

SR = assay: NCI one-dose SRB assay (Leukemia); assay type: cell-based, human
Procedure, shortened: as §1

COLO 205 = assay: NCI one-dose SRB assay (Colon Cancer); assay type: cell-based, human
Procedure, shortened: as §1

HCC-2998 = assay: NCI one-dose SRB assay (Colon Cancer); assay type: cell-based, human
Procedure, shortened: as §1

HCT-116 = assay: NCI one-dose SRB assay (Colon Cancer); assay type: cell-based, human
Procedure, shortened: as §1

HCT-15 = assay: NCI one-dose SRB assay (Colon Cancer); assay type: cell-based, human
Procedure, shortened: as §1

HT29 = assay: NCI one-dose SRB assay (Colon Cancer); assay type: cell-based, human
Procedure, shortened: as §1

KM12 = assay: NCI one-dose SRB assay (Colon Cancer); assay type: cell-based, human
Procedure, shortened: as §1

SW-620 = assay: NCI one-dose SRB assay (Colon Cancer); assay type: cell-based, human
Procedure, shortened: as §1

SF-268 = assay: NCI one-dose SRB assay (CNS Cancer); assay type: cell-based, human
Procedure, shortened: as §1

SF-295 = assay: NCI one-dose SRB assay (CNS Cancer); assay type: cell-based, human
Procedure, shortened: as §1

SF-539 = assay: NCI one-dose SRB assay (CNS Cancer); assay type: cell-based, human
Procedure, shortened: as §1

SNB-19 = assay: NCI one-dose SRB assay (CNS Cancer); assay type: cell-based, human
Procedure, shortened: as §1

SNB-75 = assay: NCI one-dose SRB assay (CNS Cancer); assay type: cell-based, human
Procedure, shortened: as §1

U251 = assay: NCI one-dose SRB assay (CNS Cancer); assay type: cell-based, human
Procedure, shortened: as §1

DU-145 = assay: NCI one-dose SRB assay (Prostate); assay type: cell-based, human
Procedure, shortened: as §1

PC-3 = assay: NCI one-dose SRB assay (Prostate); assay type: cell-based, human
Procedure, shortened: as §1

[2] = Homo sapiens, 10 μM, read-out: Percentage growth inhibition (GI%)

COc1ccc(NC(=O)Nc2ccc(-c3ccc(OC)c(OC)c3)nc2C)cc1 [Compound 8n, 1-(6-(3,4-Dimethoxyphenyl)-2-methylpyridin-3-yl)-3-(4-methoxyphenyl) Urea]
IC50 ([1]; MCF7, 48 h, 48 h of incubation, read-out: IC50 48 h): 1880 ± 120 nM | IC50 ([1]; MCF7, 72 h, 72 h of incubation, read-out: IC50 72 h): 800 ± 70 nM | inhibition at 10 µM (NCI 58 cell line panel; Homo sapiens, 10 μM, one dose, read-out: mean inhibition (mean % growth inhibition over NCI 58 cell line panel)): 22 to 34% | Mean Growth Percent (NCI 58 cell line panel; One Dose Mean Graph, 1.00E-5 Molar): 66.18% | Growth Percent (CCRF-CEM; 1.00E-5 Molar): 97.16% | inhibition at 10 µM (CCRF-CEM; [2]): < 10% | Growth Percent (HL-60(TB); 1.00E-5 Molar): 85.74% | inhibition at 10 µM (HL-60(TB); [2]): 15% | inhibition at 10 µM (K-562; Homo sapiens, K562, K-562, 10 μM, read-out: Percentage growth inhibition (GI%)): 27% | Growth Percent (K-562; K-562, 1.00E-5 Molar): 73.25% | inhibition at 10 µM (MOLT-4; Homo sapiens, MOLT-4, 10 μM, read-out: Percentage growth inhibition (GI%)): 15% | Growth Percent (MOLT-4; MOLT-4, 1.00E-5 Molar): 85.62% | inhibition at 10 µM (RPMI-8226; Homo sapiens, RPMI-8226, 10 μM, read-out: Percentage growth inhibition (GI%)): 17% | Growth Percent (RPMI-8226; RPMI-8226, 1.00E-5 Molar): 83.77% | Growth Percent (SR; 1.00E-5 Molar): 57.29% | inhibition at 10 µM (SR; [2]): 43% | Growth Percent (COLO 205; COLO 205, 1.00E-5 Molar): 91.95% | inhibition at 10 µM (COLO 205; Homo sapiens, COLO 205, 10 μM, read-out: Percentage growth inhibition (GI%)): < 10% | Growth Percent (HCC-2998; HCC-2998, 1.00E-5 Molar): 83.10% | inhibition at 10 µM (HCC-2998; Homo sapiens, HCC-2998, 10 μM, read-out: Percentage growth inhibition (GI%)): 17% | Growth Percent (HCT-116; HCT-116, 1.00E-5 Molar): 49.40% | inhibition at 10 µM (HCT-116; Homo sapiens, HCT-116, 10 μM, read-out: Percentage growth inhibition (GI%)): 51% | Growth Percent (HCT-15; HCT-15, 1.00E-5 Molar): 91.77% | inhibition at 10 µM (HCT-15; Homo sapiens, HCT-15, 10 μM, read-out: Percentage growth inhibition (GI%)): < 10% | Growth Percent (HT29; HT29, 1.00E-5 Molar): 68.76% | inhibition at 10 µM (HT29; Homo sapiens, HT-29, HT29, 10 μM, read-out: Percentage growth inhibition (GI%)): 32% | inhibition at 10 µM (KM12; Homo sapiens, KM12, 10 μM, read-out: Percentage growth inhibition (GI%)): 55% | Growth Percent (KM12; KM12, 1.00E-5 Molar): 45.29% | inhibition at 10 µM (SW-620; Homo sapiens, SW-620, 10 μM, read-out: Percentage growth inhibition (GI%)): 36% | Growth Percent (SW-620; SW-620, 1.00E-5 Molar): 64.84% | inhibition at 10 µM (SF-268; Homo sapiens, SF-268, 10 μM, read-out: Percentage growth inhibition (GI%)): 41% | Growth Percent (SF-268; SF-268, 1.00E-5 Molar): 59.25% | inhibition at 10 µM (SF-295; Homo sapiens, SF-295, 10 μM, read-out: Percentage growth inhibition (GI%)): < 10% | Growth Percent (SF-295; SF-295, 1.00E-5 Molar): 101.75% | inhibition at 10 µM (SF-539; Homo sapiens, SF-539, 10 μM, read-out: Percentage growth inhibition (GI%)): 30% | Growth Percent (SF-539; SF-539, 1.00E-5 Molar): 70.63% | inhibition at 10 µM (SNB-19; Homo sapiens, SNB-19, 10 μM, read-out: Percentage growth inhibition (GI%)): 29% | Growth Percent (SNB-19; SNB-19, 1.00E-5 Molar): 71.47% | inhibition at 10 µM (SNB-75; Homo sapiens, SNB-75, 10 μM, read-out: Percentage growth inhibition (GI%)): 53% | Growth Percent (SNB-75; SNB-75, 1.00E-5 Molar): 47.52% | inhibition at 10 µM (U251; Homo sapiens, U-251, U251, 10 μM, read-out: Percentage growth inhibition (GI%)): 78% | Growth Percent (U251; U251, 1.00E-5 Molar): 22.08% | Growth Percent (DU-145; DU-145, 1.00E-5 Molar): 72.24% | inhibition at 10 µM (DU-145; Homo sapiens, DU-145, 10 μM, read-out: Percentage growth inhibition (GI%)): 28% | inhibition at 10 µM (PC-3; Homo sapiens, PC-3, 10 μM, read-out: Percentage growth inhibition (GI%)): 19% | Growth Percent (PC-3; PC-3, 1.00E-5 Molar): 81.42% | melting point: 253 to 254 °C
